# Measurements: patent publication US20210322545A1 (priority 2016, published 2021)
# “And” between values parts separate entries of the source, which are not always exact repeats. Equal entries are not always repeated. “Also recorded” adds a separate entry of the source. Where two headings read alike, the source gives them in different places.
# Experiments:
# [1] = tested on: intracranial CT-2A tumors; settings: mouse, in vivo
# MPC-11 Fluc cells = settings: mouse, in vivo
# MM cells = format: cell-based
# glioblastoma cells = format: cell-based
# [2] = tested on: intracranial CT-2A tumors; settings: mouse, in vivo; remark: listed apart in the source
# EMT6 mammary tumors = format: in vivo, mouse
# [3] = tested on: intracranial GL261 tumors; settings: mouse, in vivo
# CD8 T-cells = format: cell-based, mouse
# [4] = tested on: U266, MM1R and MM1S cells
# SNB75 cells [5] = format: cell-based, human
# [6] = mouse, in vivo
# EMT6 cells [7] = test: cells; format: cell-based; settings: Mus musculus, EMT6, read-out: EC50 of SMC therapy
# EMT6, 4T1 or CT-2A cells = settings: mouse, in vivo
# serum cytokines = settings: mouse, in vivo
# Description: The detection of serum proteins following combinatorial SMC and anti-PD-1 treatment was analyzed by a flow cytometry-based multiplex kit (LEGENDplex inflammation panel from Biolegend).
# HT-29 tumors = settings: mouse, in vivo
# glioma cells = format: cell-based
# CT-26 tumors = settings: mouse, in vivo, sc
# VSVΔ51 = format: cell-based
# SNB75 cells [8] = test: cells; format: cell-based; settings: Homo sapiens, SNB-75, read-out: EC50 of SMC therapy
# cancer cells = format: cell-based
# EMT6 cells [9] = format: cell-based, mouse
# [10] = tested on: U266, MM1R and MM1S cells; format: cell-based, human
# [11] = tested on: CT-2A and K1580 glioblastoma cells; format: cell-based, mouse
# TNF-α = settings: mouse, in vivo, ip
# [12] = EMT6 tumors, 50 mg/kg LCL161 oral gavage
# Excerpt for cIAP1/2 and XIAP: Cells were scraped, collected by centrifugation and lysed in RIPA lysis buffer containing a protease inhibitor cocktail (Roche, Laval, Canada). Equal amounts of soluble protein were separated on polyacrylamide gels followed by transfer to nitrocellulose membranes. […] Our rabbit anti-rat IAP1 and IAP3 polyclonal antibodies were used to detect human and mouse cIAP1/2 and XIAP, respectively. AlexaFluor680 (Invitrogen) or IRDye800 (Li-Cor, Lincoln, USA) were used to detect the primary antibodies, and infrared fluorescent signals were detected using the Odyssey Infrared Imaging System (Li-Cor).
# Cells were scraped, collected by centrifugation, and lysed in RIPA lysis buffer containing a protease inhibitor cocktail (Roche). Tumors were excised, minced, and lysed as above. Equal amounts of soluble protein were separated on polyacrylamide gels followed by transfer to nitrocellulose membranes. […] Rabbit anti-rat IAP1 and IAP3 polyclonal antibodies were used to detect human and mouse cIAP1/2 and XIAP, respectively (1:5000; Cyclex Co.). AlexaFluor680 (Invitrogen) or IRDye800 (Li-Cor) (1:2500) were used to detect the primary antibodies, and infrared fluorescent signals were detected using the Odyssey Infrared Imaging System (Li-Cor).
compound,measurement,setting,value
CC[C@H](NC(=O)[C@H](C)NC)C(=O)N1C[C@@H](O)C[C@H]1Cc1c(-c2[nH]c3cc(F)ccc3c2C[C@@H]2C[C@H](O)CN2C(=O)[C@H](CC)NC(=O)[C@H](C)NC)[nH]c2cc(F)ccc12 [Birinapant],survival,[1]; ip,significant increase in survival
CN[C@@H](C)C(=O)N[C@H](C(=O)N1CCC[C@H]1c1nc(C(=O)c2ccc(F)cc2)cs1)C1CCCCC1 [LCL161],"tolerability, combination treatment",MPC-11 Fluc cells,not well tolerated
same,tumour burden (luminescence signal),MPC-11 Fluc cells,almost no tumour burden
same,"tumour burden, combination treatment",MPC-11 Fluc cells,did not reduce tumour burden as effectively as VSVΔ51 alone
same,cIAP1 and cIAP2 protein,MM cells,rapid degradation of cIAP1 and cIAP2
same,death of cultured and primary glioblastoma cell lines,glioblastoma cells,killed
same,sensitivity of CT-2A cells to combined SMC and recombinant IFN-α,glioblastoma cells,partially sensitive
same,CD4+ and CD25+ T-cells (Treg) in tumors,[2],significant decrease
same,CD4+ cells expressing IFN-γ,[2],decrease in the proportion of CD4+ cells expressing IFN-γ
same,CD8+ T-cells expressing PD-1 in tumors,[2],significant increase in CD8+ T-cells expressing PD-1
same,CD3+ and CD3+ CD8+ cells expressing PD-1,"[2]; po, 75 mg/kg",robust increase
same,cure rate,[1],50%
same,cure rate upon depletion of CD4+ T-cells,[1],100%
same,cure rate upon depletion of CD8+ T-cells,[1],completely abrogated
same,durable cures,[1],86% and 55%
same,effect of IFNAR1 blocking antibody on SMC + anti-PD1 survival synergy,[1],negated the synergistic effects
same,effect of anti-IFN-γ antibody on SMC + ICI synergy,[1],partially inhibited the synergistic effects
same,effect of systemic TNF-α blockade on SMC + ICI efficacy,[1],almost a complete reversal of the efficacy
same,neurotoxicity,[1],did not result in any overt neurotoxicity
same,physical or behavioral defects in long-term survivors,[1],no overt physical or behavioral defects
same,expected survival rate,[1]; po,86%
same,"tumor response, oral SMC + BCG",EMT6 mammary tumors; BCG intratumorally or intraperitoneally,significant tumor regression
same,durable cure rate,"EMT6 mammary tumors; mouse, in vivo",75%
same,durable cures of treated mice,"EMT6 mammary tumors; mouse, in vivo",88%
same,"tumor growth and survival, single agent","EMT6 mammary tumors; mouse, in vivo",a decrease in the rate of tumor growth and a modest extension in survival; also recorded: slightly delayed EMT6 tumor growth rates and slightly extended the survival
same,cure rate,"EMT6 mammary tumors; mouse, in vivo, ip",57%
same,durable cures of treated mice,"EMT6 mammary tumors; mouse, in vivo, ip",60%
same,durable cure rate,[3],33%
same,CD8+ T-cells expressing TNF-α,CD8 T-cells,significantly increased the proportion of CD8+ T-cells expressing TNF-α
same,PD-L1 expression,[4],Comparable upregulation
same,effect of SMC on induction of TRAIL and TNFα by IFNβ,SNB75 cells [5],potentiated the induction
same,tolerability,[6],well tolerated
same,tolerability of combination therapies,[6],well tolerated
same,body weight after a single treatment,"[6]; po, 50 mg/kg",minimal transient weight loss
same,EC50,EMT6 cells [7],> 2500 nM
same,tumor engraftment on rechallenge of cured mice,"EMT6, 4T1 or CT-2A cells",completely resistant to tumor engraftment
same,"serum IFN-, IL-1-α, IL-1β, IL-17, IFN-γ, IL-27, GM-CSF",serum cytokines,statistically significant increases
same,"effect on HT-29 tumors, monotherapy",HT-29 tumors,neither monotherapy had any effect
same,surface expression of PD-L1 and MHC I markers,glioma cells,no significant impact
same,"tumor growth and survival, single agent",CT-26 tumors,modest decrease of the tumor growth rate and a slight extension of survival
same,duration of cIAP1/2 knockdown in tumors,cIAP1/2 and XIAP; [12],at least 24 hrs
same,"duration of cIAP1/2 knockdown in tumors, in some cases (up to)",cIAP1/2 and XIAP; [12],48 to 72 h
same,IAP levels in intracranial CT-2A tumors,"cIAP1/2 and XIAP; direct intracranial injection, 10 μL of a 100 μM solution",potent down-regulation of both cIAP1/2 and XIAP proteins
same,IAP levels in intracranial CT-2A tumors,"cIAP1/2 and XIAP; systemic SMC, several hours after drug administration, indicative of crossing the BBB",degradation of cIAP1/2 proteins
same,effect of SMC treatment on growth kinetics of VSVΔ51,VSVΔ51,does not affect the growth kinetics
same,EC50,SNB75 cells [8],> 2500 nM
same,cell death by UV-inactivated conditioned media of VSVΔ51-infected cells,cancer cells,induced cell death only when the cells were co-treated with an SMC
CC(C)Cn1cnc2c(N)nc3ccccc3c21 [imiquimod],bystander death of SMC treated EMT6 cells,EMT6 cells [9],required splenocytes
IFNα,neurotoxicity,[1],did not result in any overt neurotoxicity
same,physical or behavioral defects in long-term survivors,[1],no overt physical or behavioral defects
same,"tumor growth and survival, single agent","EMT6 mammary tumors; mouse, in vivo",no effect on EMT6 tumor growth or overall survival
same,killing of MM cells with SMC,[10],very strong synergistic killing
poly(I:C),cell death by brain lysates of treated mice in the presence of SMCs,[11],enhanced cell death
same,physical or behavioral defects in long-term survivors,[1],no overt physical or behavioral defects
same,"tumor growth and survival, single agent","EMT6 mammary tumors; mouse, in vivo",no bearing on tumor growth
same,toxicity of intracranial administration,[6],without overt toxicities
same,bystander death of SMC treated EMT6 cells,EMT6 cells [9],led to EMT6 cell death directly
same,TNFα levels from the brain,TNF-α,marked up-regulation
